Data: PubChem BioAssay (NCI)
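Growth conditions: 96-well plates. Treatment: test compound, 48 hours, 5 concentrations. Analysis: linear interpolation between bracketing concentrations; unreached endpoints set to highest concentration. GI50 marks 50% less growth. The concentration for full growth arrest is given as TGI.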

The compounds below were run on KM12 colon (assay: growth of human tumour cells (NCI), 48 h).

Going from `O=c1cc(N2CCCC2)[nH]c(=O)n1-c1ccc(Cl)cc1` to `O=C(Nc1cccc(C(F)(F)F)c1)c1cc2ccccc2cc1O`, the TGI falls from greater than 100 µM to 8.44 µM.

`CC/C(=C\c1ccc(OC)cc1)c1ccc(OC)cc1` and `C=CCNC(=S)/N=C/C(C(=O)Nc1ccccc1C)=C(\C)O` cannot be ordered by TGI: greater than 100 µM for the first, greater than 100 µM for the second.

Work on `N#Cc1nc(/C=C/c2cccnc2)oc1N` yielded a TGI greater than 100 µM.

In the case of `O=C(Nc1cccc(C(F)(F)F)c1)c1cc2ccccc2cc1O`, the GI50 is reported as 2.45 µM.

These compounds were tested on A498 renal (assay: growth of human tumour cells (NCI), 48 h).

First: CCCCCCCCCCCCCCCC1(OC)C[N+](C)(C)CCO1 (configuration not stated)
Second: CC/C(=C\c1ccc(OC)cc1)c1ccc(OC)cc1
The TGI of the first is lower: 67.5 µM for the first, greater than 100 µM for the second.

Compared with `O=c1cc(N2CCCC2)[nH]c(=O)n1-c1ccc(Cl)cc1`, `O=C(Nc1cccc(C(F)(F)F)c1)c1cc2ccccc2cc1O` is lower in TGI: greater than 100 µM for the first, 7.4 µM for the second.

`N#Cc1nc(/C=C/c2cccnc2)oc1N` was tested, and the TGI was greater than 100 µM.

Work on `O=C(Nc1cccc(C(F)(F)F)c1)c1cc2ccccc2cc1O` yielded a GI50 of 0.919 µM.

What follows are compounds tested on TK-10 renal (assay: growth of human tumour cells (NCI), 48 h).

`O=c1[nH]c2ccc(CC(=S)N3CCCCC3)cc2s1` and `O=c1cc(N2CCCC2)[nH]c(=O)n1-c1ccc(Cl)cc1` cannot be ordered by TGI: greater than 100 µM for the first, greater than 100 µM for the second.

Compared with `CCCCCCCCCCCCCCCC1(OC)C[N+](C)(C)CCO1` (configuration not stated), `CC/C(=C\c1ccc(OC)cc1)c1ccc(OC)cc1` is higher in TGI: 5.33 µM for the first, greater than 100 µM for the second.

`O=C(Nc1cccc(C(F)(F)F)c1)c1cc2ccccc2cc1O` and `C=CCNC(=S)/N=C/C(C(=O)Nc1ccccc1C)=C(\C)O` cannot be ordered by TGI: greater than 41.4 µM for the first, greater than 100 µM for the second.

`N#Cc1nc(/C=C/c2cccnc2)oc1N` was tested, and the TGI was greater than 100 µM.

For `O=C(Nc1cccc(C(F)(F)F)c1)c1cc2ccccc2cc1O`, the GI50 was 3.97 µM.

What follows are compounds tested on LOX IMVI melanoma (assay: growth of human tumour cells (NCI), 48 h).

`O=c1[nH]c2ccc(CC(=S)N3CCCCC3)cc2s1` and `O=c1cc(N2CCCC2)[nH]c(=O)n1-c1ccc(Cl)cc1` cannot be ordered by TGI: greater than 100 µM for the first, greater than 100 µM for the second.

Compared with `O=C(Nc1cccc(C(F)(F)F)c1)c1cc2ccccc2cc1O`, `CC/C(=C\c1ccc(OC)cc1)c1ccc(OC)cc1` is higher in TGI: 14.3 µM for the first, greater than 100 µM for the second.

`N#Cc1nc(/C=C/c2cccnc2)oc1N` and `C=CCNC(=S)/N=C/C(C(=O)Nc1ccccc1C)=C(\C)O` cannot be ordered by TGI: greater than 100 µM for the first, greater than 100 µM for the second.

Work on `O=C(Nc1cccc(C(F)(F)F)c1)c1cc2ccccc2cc1O` yielded a GI50 of 1.92 µM.

What follows are compounds tested on OVCAR-8 ovarian (assay: growth of human tumour cells (NCI), 48 h).

`O=c1[nH]c2ccc(CC(=S)N3CCCCC3)cc2s1` and `O=c1cc(N2CCCC2)[nH]c(=O)n1-c1ccc(Cl)cc1` cannot be ordered by TGI: greater than 100 µM for the first, greater than 100 µM for the second.

`O=C(Nc1cccc(C(F)(F)F)c1)c1cc2ccccc2cc1O` and `CC/C(=C\c1ccc(OC)cc1)c1ccc(OC)cc1` cannot be ordered by TGI: greater than 31.3 µM for the first, greater than 100 µM for the second.

`C=CCNC(=S)/N=C/C(C(=O)Nc1ccccc1C)=C(\C)O` showed a TGI greater than 100 µM.

Work on `O=C(Nc1cccc(C(F)(F)F)c1)c1cc2ccccc2cc1O` yielded a GI50 of 3.7 µM.

The compounds below were run on UACC-62 melanoma (assay: growth of human tumour cells (NCI), 48 h).

`O=c1[nH]c2ccc(CC(=S)N3CCCCC3)cc2s1` and `O=c1cc(N2CCCC2)[nH]c(=O)n1-c1ccc(Cl)cc1` cannot be ordered by TGI: greater than 100 µM for the first, greater than 100 µM for the second.

Going from `CCCCCCCCCCCCCCCC1(OC)C[N+](C)(C)CCO1` (configuration not stated) to `CC/C(=C\c1ccc(OC)cc1)c1ccc(OC)cc1`, the TGI rises from 7.64 µM to greater than 100 µM.

`O=C(Nc1cccc(C(F)(F)F)c1)c1cc2ccccc2cc1O` and `C=CCNC(=S)/N=C/C(C(=O)Nc1ccccc1C)=C(\C)O` cannot be ordered by TGI: greater than 46.1 µM for the first, greater than 100 µM for the second.

Compound `N#Cc1nc(/C=C/c2cccnc2)oc1N` has a TGI greater than 100 µM.

With `O=C(Nc1cccc(C(F)(F)F)c1)c1cc2ccccc2cc1O` the GI50 was 0.835 µM.

What follows are compounds tested on MDA-MB-231 breast (assay: growth of human tumour cells (NCI), 48 h).

`O=c1[nH]c2ccc(CC(=S)N3CCCCC3)cc2s1` and `O=c1cc(N2CCCC2)[nH]c(=O)n1-c1ccc(Cl)cc1` cannot be ordered by TGI: greater than 100 µM for the first, greater than 100 µM for the second.

Going from `CCCCCCCCCCCCCCCC1(OC)C[N+](C)(C)CCO1` (configuration not stated) to `CC/C(=C\c1ccc(OC)cc1)c1ccc(OC)cc1`, the TGI rises from 4.8 µM to greater than 100 µM.

Going from `O=C(Nc1cccc(C(F)(F)F)c1)c1cc2ccccc2cc1O` to `C=CCNC(=S)/N=C/C(C(=O)Nc1ccccc1C)=C(\C)O`, the TGI rises from 7.08 µM to greater than 100 µM.

`N#Cc1nc(/C=C/c2cccnc2)oc1N` gave a TGI greater than 100 µM.

`O=C(Nc1cccc(C(F)(F)F)c1)c1cc2ccccc2cc1O` was tested, and the GI50 was 2.08 µM.

Each compound was assayed on ACHN renal (assay: growth of human tumour cells (NCI), 48 h).

`O=c1[nH]c2ccc(CC(=S)N3CCCCC3)cc2s1` and `O=c1cc(N2CCCC2)[nH]c(=O)n1-c1ccc(Cl)cc1` cannot be ordered by TGI: greater than 100 µM for the first, greater than 100 µM for the second.

Going from `CCCCCCCCCCCCCCCC1(OC)C[N+](C)(C)CCO1` (configuration not stated) to `CC/C(=C\c1ccc(OC)cc1)c1ccc(OC)cc1`, the TGI rises from 5.8 µM to greater than 100 µM.

`O=C(Nc1cccc(C(F)(F)F)c1)c1cc2ccccc2cc1O` and `C=CCNC(=S)/N=C/C(C(=O)Nc1ccccc1C)=C(\C)O` cannot be ordered by TGI: greater than 30.4 µM for the first, greater than 100 µM for the second.

`N#Cc1nc(/C=C/c2cccnc2)oc1N` gave a TGI greater than 100 µM.

`O=C(Nc1cccc(C(F)(F)F)c1)c1cc2ccccc2cc1O` gave a GI50 of 1.78 µM.

What follows are compounds tested on COLO 205 colon (assay: growth of human tumour cells (NCI), 48 h).

`O=c1[nH]c2ccc(CC(=S)N3CCCCC3)cc2s1` and `O=c1cc(N2CCCC2)[nH]c(=O)n1-c1ccc(Cl)cc1` cannot be ordered by TGI: greater than 100 µM for the first, greater than 100 µM for the second.

Compared with `CCCCCCCCCCCCCCCC1(OC)C[N+](C)(C)CCO1` (configuration not stated), `CC/C(=C\c1ccc(OC)cc1)c1ccc(OC)cc1` is higher in TGI: 2.58 µM for the first, greater than 100 µM for the second.

First: O=C(Nc1cccc(C(F)(F)F)c1)c1cc2ccccc2cc1O
Second: C=CCNC(=S)/N=C/C(C(=O)Nc1ccccc1C)=C(\C)O
The TGI of the first is lower: 4.6 µM for the first, greater than 100 µM for the second.

In the case of `N#Cc1nc(/C=C/c2cccnc2)oc1N`, the TGI is reported as greater than 100 µM.

Compound `O=C(Nc1cccc(C(F)(F)F)c1)c1cc2ccccc2cc1O` has a GI50 of 1.9 µM.

These compounds were tested on MCF7 breast (assay: growth of human tumour cells (NCI), 48 h).

`O=c1[nH]c2ccc(CC(=S)N3CCCCC3)cc2s1` and `O=c1cc(N2CCCC2)[nH]c(=O)n1-c1ccc(Cl)cc1` cannot be ordered by TGI: greater than 100 µM for the first, greater than 100 µM for the second.

Compared with `CCCCCCCCCCCCCCCC1(OC)C[N+](C)(C)CCO1` (configuration not stated), `CC/C(=C\c1ccc(OC)cc1)c1ccc(OC)cc1` is higher in TGI: 0.901 µM for the first, greater than 100 µM for the second.

`O=C(Nc1cccc(C(F)(F)F)c1)c1cc2ccccc2cc1O` and `C=CCNC(=S)/N=C/C(C(=O)Nc1ccccc1C)=C(\C)O` cannot be ordered by TGI: greater than 43.6 µM for the first, greater than 100 µM for the second.

With `N#Cc1nc(/C=C/c2cccnc2)oc1N` the TGI was greater than 100 µM.

Compound `O=C(Nc1cccc(C(F)(F)F)c1)c1cc2ccccc2cc1O` has a GI50 of 0.708 µM.

What follows are compounds tested on SNB-19 CNS (assay: growth of human tumour cells (NCI), 48 h).

`O=c1[nH]c2ccc(CC(=S)N3CCCCC3)cc2s1` and `O=c1cc(N2CCCC2)[nH]c(=O)n1-c1ccc(Cl)cc1` cannot be ordered by TGI: greater than 100 µM for the first, greater than 100 µM for the second.

`O=C(Nc1cccc(C(F)(F)F)c1)c1cc2ccccc2cc1O` and `CC/C(=C\c1ccc(OC)cc1)c1ccc(OC)cc1` cannot be ordered by TGI: greater than 100 µM for the first, greater than 100 µM for the second.

`N#Cc1nc(/C=C/c2cccnc2)oc1N` and `C=CCNC(=S)/N=C/C(C(=O)Nc1ccccc1C)=C(\C)O` cannot be ordered by TGI: greater than 100 µM for the first, greater than 100 µM for the second.

With `O=C(Nc1cccc(C(F)(F)F)c1)c1cc2ccccc2cc1O` the GI50 was 1.75 µM.

Each compound was assayed on HCT-15 colon (assay: growth of human tumour cells (NCI), 48 h).

`O=c1[nH]c2ccc(CC(=S)N3CCCCC3)cc2s1` and `O=c1cc(N2CCCC2)[nH]c(=O)n1-c1ccc(Cl)cc1` cannot be ordered by TGI: greater than 100 µM for the first, greater than 100 µM for the second.

First: CCCCCCCCCCCCCCCC1(OC)C[N+](C)(C)CCO1 (configuration not stated)
Second: CC/C(=C\c1ccc(OC)cc1)c1ccc(OC)cc1
The TGI of the first is lower: 28.9 µM for the first, greater than 100 µM for the second.

`O=C(Nc1cccc(C(F)(F)F)c1)c1cc2ccccc2cc1O` and `C=CCNC(=S)/N=C/C(C(=O)Nc1ccccc1C)=C(\C)O` cannot be ordered by TGI: greater than 100 µM for the first, greater than 100 µM for the second.

`N#Cc1nc(/C=C/c2cccnc2)oc1N` showed a TGI greater than 100 µM.

With `O=C(Nc1cccc(C(F)(F)F)c1)c1cc2ccccc2cc1O` the GI50 was 2.34 µM.

What follows are compounds tested on NCI-H460 lung (assay: growth of human tumour cells (NCI), 48 h).

Compared with `CCCCCCCCCCCCCCCC1(OC)C[N+](C)(C)CCO1` (configuration not stated), `CC/C(=C\c1ccc(OC)cc1)c1ccc(OC)cc1` is higher in TGI: 5.57 µM for the first, greater than 100 µM for the second.

`O=c1cc(N2CCCC2)[nH]c(=O)n1-c1ccc(Cl)cc1` and `O=C(Nc1cccc(C(F)(F)F)c1)c1cc2ccccc2cc1O` cannot be ordered by TGI: greater than 100 µM for the first, greater than 44.1 µM for the second.

`N#Cc1nc(/C=C/c2cccnc2)oc1N` and `C=CCNC(=S)/N=C/C(C(=O)Nc1ccccc1C)=C(\C)O` cannot be ordered by TGI: greater than 100 µM for the first, greater than 100 µM for the second.

Compound `O=C(Nc1cccc(C(F)(F)F)c1)c1cc2ccccc2cc1O` has a GI50 of 1.41 µM.

The compounds below were run on UACC-257 melanoma (assay: growth of human tumour cells (NCI), 48 h).

`O=c1[nH]c2ccc(CC(=S)N3CCCCC3)cc2s1` and `O=c1cc(N2CCCC2)[nH]c(=O)n1-c1ccc(Cl)cc1` cannot be ordered by TGI: greater than 100 µM for the first, greater than 100 µM for the second.

Going from `CCCCCCCCCCCCCCCC1(OC)C[N+](C)(C)CCO1` (configuration not stated) to `CC/C(=C\c1ccc(OC)cc1)c1ccc(OC)cc1`, the TGI rises from 4.85 µM to greater than 100 µM.

`O=C(Nc1cccc(C(F)(F)F)c1)c1cc2ccccc2cc1O` and `N#Cc1nc(/C=C/c2cccnc2)oc1N` cannot be ordered by TGI: greater than 24.7 µM for the first, greater than 100 µM for the second.

Work on `O=C(Nc1cccc(C(F)(F)F)c1)c1cc2ccccc2cc1O` yielded a GI50 of 2.97 µM.
